Measured values as given in the supplement of paper PMC11451515.

Experiments:
Conditions in all cases: 48 h
SEM cells [1] = assay: cell viability relative to DMSO control; higher = less cytotoxic
Summary of the method: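 Viability, reported as a per-plate percentage of DMSO wells with cell-free wells as background, came from CellTiter-Glo One luminescence. Reading took place after 48 h at 37°C. Before that, NOMO1 or SEM (500 cells/well) or P12-Ichikawa (1000 cells/well) leukemia cells, adapted for at least four passages in each medium, were seeded in 1536-well plates (5 μl) and pin-dosed with library compounds in DMSO, 47 μM to 0.79 nM over 11 threefold points.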

NOMO1 = assay: AUC of viability dose-response curve (% viability x log10 dose units); higher = less sensitive
Summary of the method: (§1)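 Seeding of medium-adapted leukemia cells was at 500 or 1000 cells/well in 1536-well plates, followed by 48 h at 37°C with library compounds in DMSO at 11 threefold doses from 47 μM to 0.79 nM. CellTiter-Glo One luminescence was normalised per plate to DMSO and cell-free wells and fitted as a four-parameter log-logistic function of log10 dose. Area under the curve was integrated by trapezoidal rule, with curves exceeding full viability scaled and curves failing quality control removed.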

SEM cells [2] = assay: as above
Summary of the method: as §1

P12-Ichikawa = assay: as above
Summary of the method: as §1

[3] = HPLM + 10% dialyzed FBS, 0.000781 µM
[4] = HPLM + 10% dialyzed FBS, 0.00234 µM
[5] = HPLM + 10% dialyzed FBS, 0.00702 µM
[6] = HPLM + 10% dialyzed FBS, 0.0211 µM
[7] = HPLM + 10% dialyzed FBS, 0.0632 µM
[8] = HPLM + 10% dialyzed FBS, 0.19 µM
[9] = HPLM + 10% dialyzed FBS, 0.569 µM
[10] = HPLM + 10% dialyzed FBS, 1.71 µM
[11] = HPLM + 10% dialyzed FBS, 5.12 µM
[12] = HPLM + 10% dialyzed FBS, 15.4 µM
[13] = HPLM + 10% dialyzed FBS, 46.1 µM
[14] = RPMI 5 mM glucose + 10% dialyzed FBS

| Structure (SMILES) | cell viability (SEM cells [1]; [3]) | cell viability (SEM cells [1]; [4]) | cell viability (SEM cells [1]; [5]) | cell viability (SEM cells [1]; [6]) | cell viability (SEM cells [1]; [7]) | cell viability (SEM cells [1]; [8]) | cell viability (SEM cells [1]; [9]) | cell viability (SEM cells [1]; [10]) | cell viability (SEM cells [1]; [11]) | cell viability (SEM cells [1]; [12]) | cell viability (SEM cells [1]; [13]) | cell viability (SEM cells [1]; RPMI 5 mM glucose + 10% FBS, 0.000781 µM) | cell viability (SEM cells [1]; RPMI 5 mM glucose + 10% FBS, 0.00234 µM) | cell viability (SEM cells [1]; RPMI 5 mM glucose + 10% FBS, 0.00702 µM) | cell viability (SEM cells [1]; RPMI 5 mM glucose + 10% FBS, 0.0211 µM) | cell viability (SEM cells [1]; RPMI 5 mM glucose + 10% FBS, 0.0632 µM) | cell viability (SEM cells [1]; RPMI 5 mM glucose + 10% FBS, 0.19 µM) | cell viability (SEM cells [1]; RPMI 5 mM glucose + 10% FBS, 0.569 µM) | cell viability (SEM cells [1]; RPMI 5 mM glucose + 10% FBS, 1.71 µM) | cell viability (SEM cells [1]; RPMI 5 mM glucose + 10% FBS, 5.12 µM) | cell viability (SEM cells [1]; RPMI 5 mM glucose + 10% FBS, 15.4 µM) | cell viability (SEM cells [1]; RPMI 5 mM glucose + 10% FBS, 46.1 µM) | AUC of viability dose-response curve (NOMO1; HPLM + 10% dialyzed FBS) | AUC of viability dose-response curve (NOMO1; RPMI 5 mM glucose + 10% FBS) | AUC of viability dose-response curve (NOMO1; [14]) | AUC of viability dose-response curve (SEM cells [2]; HPLM + 10% dialyzed FBS) | AUC of viability dose-response curve (SEM cells [2]; RPMI 5 mM glucose + 10% FBS) | AUC of viability dose-response curve (SEM cells [2]; [14]) | AUC of viability dose-response curve (P12-Ichikawa; HPLM + 10% dialyzed FBS) | AUC of viability dose-response curve (P12-Ichikawa; RPMI 5 mM glucose + 10% FBS) | AUC of viability dose-response curve (P12-Ichikawa; [14]) |
| --- | --- | --- | --- | --- | --- | --- | --- | --- | --- | --- | --- | --- | --- | --- | --- | --- | --- | --- | --- | --- | --- | --- | --- | --- | --- | --- | --- | --- | --- | --- | --- |
| Clc1ccc2ncc(-c3cccc(NC4CNC4)n3)n2c1 | 120% | 121% | 125% | 125% | 136% | 122% | 115% | 113% | 77.5% | 67.1% | 45.8% | 119% | 122% | 131% | 121% | 147% | 141% | 119% | 115% | 105% | 76.9% | 47.6% | 433 | 455 | 443 | 412 | 427 | 411 | 441 | 439 | 443 |
| COC(=O)N[C@H](C(=O)N1CCC[C@H]1c1ncc(-c2ccc(-c3ccc(-c4cnc([C@@H]5CCCN5C(=O)[C@@H](NC(=O)OC)C(C)C)[nH]4)cc3)cc2)[nH]1)C(C)C | 90.4% | 116% | 132% | 125% | 129% | 126% | 117% | 131% | 133% | 126% | 98.3% |  |  |  |  |  |  |  |  |  |  |  | 437 | 458 | 470 | 468 | 468 | 460 | 473 | 474 | 473 |
| O[C@@H]1[C@@H](O)[C@H](O[C@@H]([C@H]1O)C(O)=O)OC2=C(O)C(=C3C(=O)\C=C(/OC3=C2)C4=CC=CC=C4)O |  |  |  |  |  |  |  |  |  |  |  |  |  |  |  |  |  |  |  |  |  |  | 445 | 427 | 460 | 446 | 409 | 425 | 447 | 448 | 460 |
